Data: patent US9546167B2, “Radiosynthesis of tau radiopharmaceuticals” (The General Hospital Corporation, priority 2013, dated 2017)

What was measured:
[1] = solubility of precursor in reaction / organic solvents; type: physicochemical
Method: The uncorrected radiochemical yield (RCY) of [^18F]T807 was 14±3% (n=3) and the total synthesis time was 60 minutes, including formulation. The product was prepared consistently with >95% radiochemical purity and the specific activity at the end of synthesis was 216±60 GBq/μmol (5837±1621 mCi/μmol). […] Therefore, the precursor could be added remotely to the reaction vial with minimal volume and eliminated the possibility of the precursor precipitating out of solution before use. Moreover, the fluorination condition simultaneously removed the t-BOC protecting group so there was no need for an additional deprotection step. Secondly, without being bound by any theory, it is thought that the protecting group may also be responsible for the higher radiochemical yields by inhibiting side reactions with the —NH of the indole moiety.

[2] = lipophilicity of precursor (HPLC analysis remark); type: physicochemical; details: qualitative
Method: (§1) Three consecutive productions of [^18F]T807 were carried out to validate this radiopharmaceutical for human use. […] Due to the increased lipophilicity of 1b, an additional HPLC analysis was performed using an X-Select HSS T3 column (4.6×150 mm, 3.5 μm) and eluted with 50% CH3OH/H2O (pH 2 adjusted with HCl) with a flow rate of 1.2 mL/min, monitored at λ=254 nm. Radio-TLC was performed to verify the radiochemical purity of [^18F]T807 using silica gel plates and 80:20 (v/v) CH2Cl2:CH3OH mobile phase. Radio-TLC confirmed high radiochemical purity (>97%). […] The half-life was verified to be 109.7 minutes, as determined by a dose calibrator, and no long lived isotopes were observed (5 days), as determined by analysis on a HPGE detector after ^18F-decay. Formulated [^18F]T807 was free of pyrogens (Charles River Endosafe® PTS), sterile, and passed the Kryptofix® spot test (<50 μg/mL). […] Using this new methodology, [^18F]T807 was successfully validated for human PET studies, meeting all FDA and USP requirements for a PET radiopharmaceutical.

[3] = test system: hyperphosphorylated tau fibrillar aggregates; details: PET imaging, human subjects; cited from earlier work
[4] = stability of formulated product by HPLC and radio-TLC, clarity and pH; type: physicochemical; details: over a period of 6 hours
Method: as §1

[5] = test system: paired helical filaments of tau (PHF-tau); details: cited from earlier work

O=[N+]([O-])c1ccc(-c2ccc3c(c2)[nH]c2ccncc23)cn1 [Compound 1a, 7-(6-nitropyridin-3-yl)-5H-pyrido[4,3-b]indole, reference compound]
solubility in most organic solvents [1]: only sparingly soluble

CC(C)(C)OC(=O)n1c2ccncc2c2ccc(-c3ccc([N+](=O)[O-])nc3)cc21 [Compound 1b, tert-butyl 7-(6-nitropyridin-3-yl)-5H-pyrido[4,3-b]indole-5-carboxylate]
solubility in the reaction solvent (DMSO) ([1]; compared with 1a): increased | lipophilicity [2]: increased

CC(=C(C#N)C#N)c1ccc2cc(N(C)CCF)ccc2c1 [[^18F]FDDNP]
distinction between amyloid-β plaques and tau [3]: does not distinguish | imaging of hyperphosphorylated tau fibrillar aggregates [3]: effective

[18F]c1ccc(-c2ccc3c(c2)[nH]c2ccncc23)cn1 [[^18F]T807]
pH [4]: 5.5 | stability as measured by HPLC and radio-TLC [4]: maintained stability | potency in vitro for paired helical filaments of tau (PHF-tau) [5]: excellent | selectivity in vitro for PHF-tau over Aβ-plaques [5]: excellent

[18F]CCC1CCN(c2ccn3c(n2)nc2ccccc23)CC1 [[^18F]T808, reference compound]
potency in vitro for paired helical filaments of tau (PHF-tau) [5]: excellent | selectivity in vitro for PHF-tau over Aβ-plaques [5]: excellent
